# Measured values as given in paper PMC6385118, “Korean Thistle (Cirsium japonicum var. maackii (Maxim.) Matsum.): A Potential Dietary Supplement against Diabetes and Alzheimer’s Disease” (Molecules, 2019).
# Like-named read-outs stand apart in the source and are kept apart here.
# Key:
# [1] = biological target: T1, BACE1 (Homo sapiens, UniProt P56817); assay: In vitro BACE1 enzyme assay (FRET kit); assay type: biochemical
# T1 construct: purchased PanVera Corp. (Madison, WI, USA)
# Procedure: Each assay was carried out according to the supplied instructions provided by the manufacturer with slight modifications. […] After incubation, the reaction was ceased using 10 µL of BACE1 stop solution and absorbance was measured at 545 nm […] and 585 nm (emission) wavelengths using microplate spectrofluorometer (Spectramax Gemini XPS, Molecular Devices).
# (§1) The inhibition constant (Ki) and inhibition mode of α-glucosidase and BACE1 were calculated with Lineweaver-Burk and Dixon plots. […] Each graph was generated using SigmaPlot 12.0 (Systat Software Inc., San Jose, CA, USA) and GraphPad Prism 5 (GraphPad Prism Software, Inc., La Jolla, CA, USA).
# [2] = biological target: yeast α-glucosidase; assay: In vitro α-glucosidase inhibitory activity assay (p-NPG substrate); assay type: biochemical; settings: for Ki: Dixon plot; for type of α-glucosidase inhibition (in words): Lineweaver-Burk and Dixon plots; for α-Glucosidase Inhibition (%), Mean ± SD: at 100 µM; for IC50: mean ± SD of triplicates
# Procedure: The inhibitory activity against yeast α-glucosidase enzyme was carried out spectrophotometrically in a 96-well micro-plate reader (Molecular Devices, Sunnyvale, CA, USA), using a procedure reported by Li et al. with slight modifications. […] After 15 min of incubation, the reaction was ceased using 80 µL of stop solution (0.2 M sodium carbonate) and absorbance was measured at 405 nm.
# as §1
# [3] = biological target: T2, human recombinant PTP1B (Homo sapiens, UniProt P18031); assay: In vitro PTP1B inhibitory activity assay (p-NPP substrate); assay type: biochemical; settings: mean ± SD of triplicates
# T2 construct: purchased Biomol International, LLP (Plymouth Meeting, PA, USA)
# T2 sequence (P18031 1-435): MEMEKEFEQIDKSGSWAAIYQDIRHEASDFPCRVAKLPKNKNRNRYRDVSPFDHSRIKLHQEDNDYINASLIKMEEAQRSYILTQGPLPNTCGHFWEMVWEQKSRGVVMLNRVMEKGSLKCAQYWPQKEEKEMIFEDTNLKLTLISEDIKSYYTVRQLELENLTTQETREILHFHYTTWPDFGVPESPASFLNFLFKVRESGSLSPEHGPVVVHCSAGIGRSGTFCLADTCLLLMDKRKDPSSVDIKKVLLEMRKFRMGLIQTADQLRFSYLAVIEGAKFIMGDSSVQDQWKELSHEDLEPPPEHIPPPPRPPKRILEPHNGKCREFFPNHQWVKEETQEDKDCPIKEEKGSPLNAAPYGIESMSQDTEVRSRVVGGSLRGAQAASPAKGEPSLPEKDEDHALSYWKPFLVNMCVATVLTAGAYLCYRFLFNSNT
# Procedure: The inhibitory activity of the isolated compounds against human recombinant PTP1B was evaluated using p-NPP as a substrate with slight modifications. […] After incubation, the reaction was ceased using 10 µL of stop solution (10 mM sodium hydroxide) and absorbance was measured at 405 nm.
# [4] = DPPH radical scavenging activity; settings: for DPPH Inhibition (%), Mean ± SD: at 5 µM; for EC50: mean ± SD of triplicates
# Procedure: DPPH radical scavenging activity were carried out using procedures previously described with slight modifications. Shortly, 160 µL of sample solutions/positive control (ascorbic acid) were mixed with 40 µL of DPPH solution and incubated at room temperature for 30 min. After that, absornace were measured at 520 nm using a microplate reader spectrophotometer VERSAmax (Molecular Devices).
# [5] = Peroxynitrite (ONOO−) scavenging activity; settings: for ONOO− Inhibition (%), Mean ± SD: at 5 µM; for EC50: mean ± SD of triplicates
# Procedure: Peroxynitrite (ONOO^−) scavenging activity was carried ou with slight modifications. Shortly, 10 µL of sample solutions/positive control (penicillamine) were mixed with rhodamine buffer (pH 7.4) containing 50 mM sodium phosphate dibasic, 50 mM sodium phosphate monobasic, 90 mM sodium chloride, 5 mM potassium chloride, and 100 μM DTPA. The final DHR 123 concentration was 5 µM. The fluorescent intensities were measured after 5 min with/without authentic ONOO^− using a fluorescence microplate reader (Spectramax Gemini XPS, Molecular Devices) at wavelenghts of 485 and 530 nm of excitation and emission, respectively.
# [6] = Pro-oxidant assay (reducing power); settings: ascorbic acid as positive control; Figure 3
# Procedure: The pro-oxidant activity of isolated compounds were assessed with slight modifications. Shortly, 250 µL of sample solutions/positive control (ascorbic acid) dissolved in 0.2 M phosphate buffer (pH 6.6) and 25 µL of 1% potassium ferricyanide […] were incubated at 50 °C for 20 min. After that, an equal volume of 10% trichloroacetic acid was added and then centriguged at 3000 g for 10 min. The supernatant (500 µL) and distilled water (500 µL) was mixed followed by addition of 0.1% ferric chloride (0.1 mL). Immediately, absorbance were measured spectrophotometrically at 700 nm.
# [7] = test system: α-glucosidase; settings: cited from earlier work
# [8] = read-out: BACE1 Inhibition (%), Mean ± SD
# T1 sequence (P56817 46-501): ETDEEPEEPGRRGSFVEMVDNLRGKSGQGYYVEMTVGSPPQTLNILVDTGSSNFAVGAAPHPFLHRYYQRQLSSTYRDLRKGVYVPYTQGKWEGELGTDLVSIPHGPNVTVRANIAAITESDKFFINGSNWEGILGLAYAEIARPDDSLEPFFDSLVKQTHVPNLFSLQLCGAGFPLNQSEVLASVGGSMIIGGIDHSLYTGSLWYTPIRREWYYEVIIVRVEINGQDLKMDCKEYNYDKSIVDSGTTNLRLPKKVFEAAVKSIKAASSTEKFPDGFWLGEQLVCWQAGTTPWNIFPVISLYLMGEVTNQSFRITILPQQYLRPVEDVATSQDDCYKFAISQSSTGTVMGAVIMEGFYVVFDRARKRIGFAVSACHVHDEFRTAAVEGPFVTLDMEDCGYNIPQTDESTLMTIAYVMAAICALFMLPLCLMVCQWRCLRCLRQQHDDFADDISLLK
Structure (SMILES),Ki [2],type of α-glucosidase inhibition (in words) [2],"α-Glucosidase Inhibition (%), Mean ± SD [2]",IC50 [2],IC50 [3],EC50 [4],EC50 [5],"DPPH Inhibition (%), Mean ± SD [4]","ONOO− Inhibition (%), Mean ± SD [5]",reducing power (pro-oxidant activity) [6],also measured
"O=c1c(O)c(-c2ccc(O)c(O)c2)oc2cc(O)cc(O)c12 [Quercetin, quercetin, reference compound]",–,–,–,–,–,–,–,–,–,–,"inhibition at 4.5 µg/mL [1, 8]: 70 ± 3.91%; inhibition at 10 µM [1, 8]: 67.6 ± 4.1%"
"O=c1cc(-c2ccc(O)c(O)c2)oc2cc(O)cc(O[C@@H]3O[C@H](CO)[C@@H](O)[C@H](O)[C@H]3O)c12 [Luteolin 5-O-β-D-glucopyranoside, luteolin 5-O-β-D-glucopyranoside]",272 µM,mixed type of inhibition,14.02 ± 1.45 %,270 ± 4.69 µM,> 400 µM,4.76 ± 0.05 µM,0.5 ± 0.03 µM,52.43 ± 0.53 %,79.23 ± 4.95 %,higher reducing power,"inhibition at 100 µM ([1]; at 100 µM, read-out: BACE1 Inhibition (%), Mean ± SD): 17.5 ± 1.65%; IC50 ([1]; mean ± SD of triplicates): 970 ± 7.83 µM"
"O=c1cc(-c2ccc(O)c(O)c2)oc2cc(O)cc(O)c12 [Luteolin, luteolin]",52 µM,non-competitive,69.12 ± 1.20 %,51.3 ± 1.23 µM,> 400 µM,3.05 ± 0.06 µM,0.86 ± 0.04 µM,76.65 ± 0.73 %,85.21 ± 1.61 %,lower reducing power than positive control ascorbic acid,"potency against α-glucosidase compared with the positive control, acarbose ([2]; ratio of IC50 values): five-fold more potent; type of BACE1 inhibition (in words) ([1]; Lineweaver-Burk and Dixon plots): non-competitive; inhibition at 100 µM [1, 8]: 73.73 ± 0.57%; α-glucosidase inhibition percentage ([7]; at 200 µM, mixed type (close to non-competitive), ref Tadera et al. [31]): 92%; α-glucosidase inhibition ([7]; at a concentration of 0.5 mg/mL, ref Kim et al. [32]): 36%; IC50 ([7]; mixed type inhibition, ref Xu et al. [35]): 18.6 µM; IC50 ([7]; non-competitive inhibition, ref Ha et al. [28]): 45.4 µM; IC50 ([7]; ref Proença et al. [34]): 46 ± 6 µM; IC50 ([7]; reversible, non-competitive, ref Yan et al. [29]): 172 µM"

# Second part, led by results:
Ki [2],type of α-glucosidase inhibition (in words) [2],"α-Glucosidase Inhibition (%), Mean ± SD [2]",IC50 [2],IC50 [3],EC50 [4],EC50 [5],Structure (SMILES),"DPPH Inhibition (%), Mean ± SD [4]","ONOO− Inhibition (%), Mean ± SD [5]",reducing power (pro-oxidant activity) [6],also measured
251 µM,competitive inhibition,25.53 ± 1.21 %,249 ± 2.56 µM,> 400 µM,4.79 ± 0.19 µM,2.51 ± 0.05 µM,"O=c1cc(-c2ccc(O)c(O)c2)oc2cc(O[C@@H]3O[C@H](CO)[C@@H](O)[C@H](O)[C@H]3O)cc(O)c12 [Luteolin 7-O-β-D-glucopyranoside, luteolin 7-O-β-D-glucopyranoside]",58.97 ± 1.95 %,80.23 ± 4.22 %,–,–
–,–,–,–,–,21.35 ± 0.09 µM,–,"O=C1O[C@H]([C@@H](O)CO)C(O)=C1O [Ascorbic acid, ascorbic acid, reference compound]",18.72 ± 0.44 %,–,–,–
–,–,–,–,–,–,2.28 ± 0.02 µM,"CC(C)(S)[C@@H](N)C(=O)O [Penicillamine, penicillamine, reference compound]",–,56.57 ± 2.03 %,–,–
